Data taken from the NIST ThermoML archive (doi:10.1016/j.jct.2013.12.019).

Assay: mn = molality of the nth substance listed, in mol/kg
Details: 101 kPa, Liquid, Alternating current cell with electrodes

CCCCCCCCCCCC[N+](C)(C)C.[Br-] [dodecyltrimethylammonium bromide] + O
electrical conductivity [S/m]
Details | 293.15 K | 298.15 K | 303.15 K | 308.15 K | 313.15 K
m1 = 0.0015 | 0.014 | 0.0143 | 0.0144 | 0.0153 | 0.0169
m1 = 0.003 | 0.027 | 0.0273 | 0.0278 | 0.0286 | 0.032
m1 = 0.0045 | 0.0397 | 0.0412 | 0.0413 | 0.042 | 0.0469
m1 = 0.006 | 0.0524 | 0.0535 | 0.055 | 0.0551 | 0.061
m1 = 0.0075 | 0.0645 | 0.0669 | 0.0675 | 0.068 | 0.0759
m1 = 0.009 | 0.0763 | 0.0784 | 0.0798 | 0.0808 | 0.0895
m1 = 0.0105 | 0.088 | 0.091 | 0.0908 | 0.0927 | 0.103
m1 = 0.012 | 0.0995 | 0.102 | 0.103 | 0.105 | 0.116
m1 = 0.0135 | 0.111 | 0.113 | 0.114 | 0.117 | 0.129
m1 = 0.015 | 0.121 | 0.123 | 0.126 | 0.128 | 0.137
m1 = 0.0165 | 0.13 | 0.132 | 0.132 | 0.134 | 0.144
m1 = 0.018 | 0.136 | 0.137 | 0.137 | 0.139 | 0.149
m1 = 0.0195 | 0.139 | 0.14 | 0.141 | 0.142 | 0.152
m1 = 0.021 | 0.142 | 0.142 | 0.143 | 0.145 | 0.156
m1 = 0.0225 | 0.145 | 0.145 | 0.146 | 0.148 | 0.16
m1 = 0.024 | 0.147 | 0.148 | 0.149 | 0.151 | 0.162
m1 = 0.0255 | 0.15 | 0.151 | 0.151 | 0.154 | 0.165
m1 = 0.027 | 0.153 | 0.154 | 0.154 | 0.158 | 0.168
m1 = 0.0285 | 0.156 | 0.156 | 0.156 | 0.16 | 0.171
m1 = 0.03 | 0.159 | 0.159 | 0.16 | 0.163 | 0.173
